Laboratory results as given in patent US11338007B2, “Combination formulation of three antiviral compounds” (priority 2016, dated 2022).

Experiment: Stress studies: stability of tablets made with stressed VEL SSD/VOX SSD (water, residual solvent, peroxide, reprocessing, potency; Tables 16-21)
Assay type: physicochemical
Method: The impact of the following stressors on the physical and chemical stability of the sofosbuvir/velpatasvir SSD/voxilaprevir SSD tablets were evaluated:
(i) Voxilaprevir SSD and velpatasvir SSD, and sofosbuvir/velpatasvir SSD/voxilaprevir SSD tablet water content;
(ii) Copovidone peroxide content in velpatasvir SSD and in voxilaprevir SSD (iii) Reprocessed velpatasvir SSD and voxilaprevir SSD;
(iv) Voxilaprevir SSD and velpatasvir SSD potency (varying the ratio of velpatasvir or voxilaprevir to copovidone); and
(v) Seeding sofosbuvir/velpatasvir SSD/voxilaprevir SSD tablets with crystalline voxilaprevir Form VIII and Form X drug substances.

[1] = tablets from SSDs with copovidone peroxides 544 ppm (VEL SSD), 655 ppm (VOX SSD), Initial, time 0
[2] = tablets from SSDs with copovidone peroxides 544 ppm (VEL SSD), 655 ppm (VOX SSD), closed, 1 g desiccant, 25° C./60% RH, 12 weeks
[3] = tablets from SSDs with copovidone peroxides 544 ppm (VEL SSD), 655 ppm (VOX SSD), closed, 1 g desiccant, 40° C./75% RH, 4 weeks
[4] = tablets from SSDs with copovidone peroxides 544 ppm (VEL SSD), 655 ppm (VOX SSD), closed, 1 g desiccant, 40° C./75% RH, 12 weeks
[5] = tablets from SSDs with copovidone peroxides 544 ppm (VEL SSD), 655 ppm (VOX SSD), open, no desiccant, 40° C./75% RH, 4 weeks
[6] = tablets from VEL SSD 6.0% residual ethanol, VOX SSD 2.1% residual acetone, Initial, time 0
[7] = tablets from VEL SSD 6.0% residual ethanol, VOX SSD 2.1% residual acetone, closed, 1 g desiccant, 25° C./60% RH, 12 weeks
[8] = tablets from VEL SSD 6.0% residual ethanol, VOX SSD 2.1% residual acetone, closed, 1 g desiccant, 40° C./75% RH, 4 weeks
[9] = tablets from VEL SSD 6.0% residual ethanol, VOX SSD 2.1% residual acetone, closed, 1 g desiccant, 40° C./75% RH, 12 weeks
[10] = tablets from VEL SSD 6.0% residual ethanol, VOX SSD 2.1% residual acetone, open, no desiccant, 40° C./75% RH, 4 weeks
[11] = tablets from VEL SSD 7.0% water, VOX SSD 3.2% water, Initial, time 0
[12] = tablets from VEL SSD 7.0% water, VOX SSD 3.2% water, closed, 1 g desiccant, 25° C./60% RH, 12 weeks
[13] = tablets from VEL SSD 7.0% water, VOX SSD 3.2% water, closed, 1 g desiccant, 40° C./75% RH, 4 weeks
[14] = tablets from VEL SSD 7.0% water, VOX SSD 3.2% water, closed, 1 g desiccant, 40° C./75% RH, 12 weeks
[15] = tablets from twice reprocessed VEL SSD and VOX SSD, Initial, time 0
[16] = tablets from twice reprocessed VEL SSD and VOX SSD, closed, 1 g desiccant, 25° C./60% RH, 12 weeks
[17] = tablets from twice reprocessed VEL SSD and VOX SSD, closed, 1 g desiccant, 40° C./75% RH, 4 weeks
[18] = tablets from twice reprocessed VEL SSD and VOX SSD, closed, 1 g desiccant, 40° C./75% RH, 12 weeks
[19] = tablets from twice reprocessed VEL SSD and VOX SSD, open, no desiccant, 40° C./75% RH, 4 weeks

## CC(C)OC(=O)C(C)N[P@](=O)(OC[C@H]1O[C@@H](n2ccc(=O)[nH]c2=O)[C@](C)(F)[C@@H]1O)Oc1ccccc1 (stereo in doubt) [sofosbuvir, (S)-isopropyl 2-(((S)-(((2R,3R,4R,5R)-5-(2,4-dioxo-3,4-dihydropyrimidin-1(2H)-yl)-4-fluoro-3-hydroxy-4-methyltetrahydrofuran-2-yl)methoxy)(phenoxy)phosphoryl)amino)propanoate]
Tablets Lot A (super-potent VEL SSD, super-potent VOX SSD), closed, 1 g desiccant, 25° C./60% RH, 12 weeks
  LS (%): 99.0%
Tablets Lot A (super-potent VEL SSD, super-potent VOX SSD), closed, 1 g desiccant, 40° C./75% RH, 4 weeks
  LS (%): 99.9%
Tablets Lot A (super-potent VEL SSD, super-potent VOX SSD), closed, 1 g desiccant, 40° C./75% RH, 12 weeks
  LS (%): 99.8%
Tablets Lot A (super-potent VEL SSD, super-potent VOX SSD), open, without cap, 40° C./75% RH, 4 weeks
  LS (%): 100.3%
Tablets Lot B (sub-potent VEL SSD, sub-potent VOX SSD), Initial, time 0
  LS (%): 99.9%
Tablets Lot B (sub-potent VEL SSD, sub-potent VOX SSD), closed, 1 g desiccant, 25° C./60% RH, 12 weeks
  LS (%): 99.4%
Tablets Lot B (sub-potent VEL SSD, sub-potent VOX SSD), closed, 1 g desiccant, 40° C./75% RH, 4 weeks
  LS (%): 99.8%
Tablets Lot B (sub-potent VEL SSD, sub-potent VOX SSD), closed, 1 g desiccant, 40° C./75% RH, 12 weeks
  LS (%): 98.7%
Tablets Lot B (sub-potent VEL SSD, sub-potent VOX SSD), open, without cap, 40° C./75% RH, 4 weeks
  LS (%): 100.1%
Tablets Lot C (sub-potent VEL SSD, super-potent VOX SSD), Initial, time 0
  LS (%): 99.5%
Tablets Lot C (sub-potent VEL SSD, super-potent VOX SSD), closed, 1 g desiccant, 25° C./60% RH, 12 weeks
  LS (%): 99.6%
Tablets Lot C (sub-potent VEL SSD, super-potent VOX SSD), closed, 1 g desiccant, 40° C./75% RH, 4 weeks
  LS (%): 99.6%
Tablets Lot C (sub-potent VEL SSD, super-potent VOX SSD), closed, 1 g desiccant, 40° C./75% RH, 12 weeks
  LS (%): 99.1%
Tablets Lot C (sub-potent VEL SSD, super-potent VOX SSD), open, without cap, 40° C./75% RH, 4 weeks
  LS (%): 99.4%
Tablets Lot D (super-potent VEL SSD, sub-potent VOX SSD), Initial, time 0
  LS (%): 100.0%
Tablets Lot D (super-potent VEL SSD, sub-potent VOX SSD), closed, 1 g desiccant, 25° C./60% RH, 12 weeks
  LS (%): 99.5%
Tablets Lot D (super-potent VEL SSD, sub-potent VOX SSD), closed, 1 g desiccant, 40° C./75% RH, 4 weeks
  LS (%): 100.1%
Tablets Lot D (super-potent VEL SSD, sub-potent VOX SSD), closed, 1 g desiccant, 40° C./75% RH, 12 weeks
  LS (%): 98.9%
Tablets Lot D (super-potent VEL SSD, sub-potent VOX SSD), open, without cap, 40° C./75% RH, 4 weeks
  LS (%): 99.8%
Tablets from SSDs with copovidone 544 ppm (VEL SSD) and 655 ppm (VOX SSD) peroxides
  total impurities/degradation products: 0.0%
[1]
  LS (%): 100.0%
  Total Imp./Deg. (%): 0.0%
[2]
  LS (%): 99.3%
  Total Imp./Deg. (%): 0.0%
[3]
  LS (%): 99.3%
  Total Imp./Deg. (%): 0.0%
[4]
  LS (%): 98.9%
  Total Imp./Deg. (%): 0.0%
[5]
  LS (%): 100.3%
  Total Imp./Deg. (%): 0.0%
Tablets from VEL SSD 6.0% residual ethanol and VOX SSD 2.1% residual acetone, all conditions
  total impurities/degradation products: 0.0%
[6]
  LS (%): 101.2%
  Total Imp./Deg. (%): 0.0%
[7]
  LS (%): 100.5%
  Total Imp./Deg. (%): 0.0%
[8]
  LS (%): 101.5%
  Total Imp./Deg. (%): 0.0%
[9]
  LS (%): 100.9%
  Total Imp./Deg. (%): 0.0%
[10]
  LS (%): 100.9%
  Total Imp./Deg. (%): 0.0%
Tablets from VEL SSD 7.0% and VOX SSD 3.2% water content, all conditions
  total impurities/degradation products: 0.0%
[11]
  LS (%): 100.5%
  Total Imp./Deg. (%): 0.0%
[12]
  LS (%): 99.9%
  Total Imp./Deg. (%): 0.0%
[13]
  LS (%): 101.6%
  Total Imp./Deg. (%): 0.0%
[14]
  LS (%): 100.4%
  Total Imp./Deg. (%): 0.0%
[15]
  LS (%): 100.7%
  Total Imp./Deg. (%): 0.0%
Tablets from twice reprocessed VEL SSD and VOX SSD, all conditions
  total impurities/degradation products: 0.0%
[16]
  LS (%): 99.9%
  Total Imp./Deg. (%): 0.0%
[17]
  LS (%): 100.3%
  Total Imp./Deg. (%): 0.0%
[18]
  LS (%): 99.1%
  Total Imp./Deg. (%): 0.0%
[19]
  LS (%): 96.4%
  Total Imp./Deg. (%): 0.0%
